Data on 3 substances can be found in patent US20120107240A1, “Probes and methods of melanoma imaging” (The Board of Trustees of the Leland Stanford Junior …, priority 2010, published 2012).

In series [1] the test system is B16F10 tumor. Description: microPET quantification (ROI analysis) of tumors and other organs in B16F10 tumor-bearing mice. It counts as in vivo, C57BL/6 mice. Conditions: for tumor uptake: tail vein, B16F10 tumor. As for the experimental part:
B16F10 was cultured in Dulbecco's modified Eagle high-glucose medium (Gibco Life Sciences) supplemented with 10% fetal bovine serum with penicillin and streptomycin. The cells were regularly maintained in a 37° C., 5% CO2 humidified incubator. The subcutaneous B16F10 tumor models were prepared with 5- to 6-wk-old male C57BL/6 mice (Charles River). Static microPET scans were performed on the B16F10 tumor-bearing mice and representative decay-corrected coronal images at 0.5, 1, and 2 h after tail vein injection of ^18F-P3BZA (3-^18F-fluoropicolinamide) probe and ^18F-P2BZA (2-^18F-fluoronicotinamide) probe are shown in FIG. 2 (n=5 for each group), from which the B16F10 tumors were clearly visualized with good tumor-to-background contrast for both tracers (the white arrows indicate the tumors).
The microPET quantification analysis of tumors and other organs was obtained from the ROI analysis and the results at 0.5, 1, and 2 h p.i. are shown in FIG. 3. The tumor uptake of 18F-F3BZA probe was 11.8±2.2, 13.2±2.4, and 14.5±3.2% ID/g at 0.5, 1, and 2 h p.i., respectively. For ^18F-P2BZA probe, the tumor uptake was 5.5±1.6, 4.6±2.4, 5.5±2.6% ID/g at 0.5, 1, and 2 h p.i., respectively. […] The unspecific uptake by muscle is very low, 0.8±0.4, 1.0±0.5, 0.6±0.3% ID/g at 0.5, 1, and 2 h p.i.), which is the explanation of the high contrast images shown in FIG. 2.
(§1) The ^18F-fluoropicolinamides were prepared by radiofluorination reactions using no-carrier-added ^18F-fluoride and evaluated in vivo by biodistribution studies and micro-positron emission tomography (microPET) imaging in C57BL/6 mice bearing B16F10 murine melanoma tumors.

Series [2] deals with B16F10 murine melanoma tumors. Description: Noninvasive microPET and direct tissue sampling (biodistribution) in subcutaneous B16F10 melanoma xenografts. In kind it is in vivo, C57BL/6 mice. Here is the method: as §1
The total synthesis time was less than 1 hour. The radiochemical purity of the ^18F-labeled probes was more than 98% and the specific activity was 100-150 GBq/μmol.

With “2-^18F-fluoronicotinamide [^18F-P2BZA, reference compound]”, the values for the tumor uptake in series [1] (0.5 h post injection), in series [1] (1 h post injection) and in series [1] (2 h post injection) were 5.5±1.6 % ID/g, 4.6±2.4 % ID/g and 5.5±2.6 % ID/g, respectively.
3-^18F-fluoropicolinamide [^18F-P3BZA]: the figures for the Kidneys uptake in series [1] (0.5 h p.i.), in series [1] (1 h p.i.) and in series [1] (2 h p.i.) were 6.9±1.1 % ID/g, 4.7±0.8 % ID/g and 3.0±0.6 % ID/g, respectively. The Liver uptake in series [1] (0.5 h p.i.) stood at 5.1±0.8 % ID/g; in series [1] (1 h p.i.), 4.3±1.1 % ID/g; in series [1] (2 h p.i.), 3.0±0.6 % ID/g. The “unspecific uptake by muscle” value is reported as 0.8±0.4 % ID/g in series [1] (0.5 h p.i.), 1.0±0.5 % ID/g in series [1] (1 h p.i.) and 0.6±0.3 % ID/g in series [1] (2 h p.i.). Besides, the tumor uptake came to 11.8±2.2 % ID/g in series [1] (0.5 h post injection); 13.2±2.4 % ID/g in series [1] (1 h post injection); 14.6±3.2 % ID/g in series [1] (2 h post injection); 14.5±3.2 % ID/g in series [1] (2 h post injection, listed as 18F-F3BZA). Moreover, in series [1] (at 2 h), the “tumor to muscle ratio” value stood at 25.3. The “clearance from the blood” value in series [1] (mouse, in vivo) is listed as “cleared rapidly”. In series [2] (evidenced by bone uptake), the in vivo stability entry is “good”. Besides, the “bone uptake in biodistribution studies” value in series [2] (mouse, in vivo) is on record as “low”.
4-^18F-fluoropicolinamide [^18F-P4BZA]: the results for the tumor uptake in series [1] (0.5 h post injection), in series [1] (1 h post injection) and in series [1] (2 h post injection) were 10.7±1.3 % ID/g, 10.5±1.8 % ID/g and 8.7±2.3 % ID/g, respectively. The bone uptake in series [1] (1 h postinjection) is 11.3±2.9 % ID/g; in series [1] (2 h postinjection), 10.3±3.6 % ID/g. Also, the “defluorination in the murine model” value in series [1] (evidenced by bone uptake) is given as “very high”.
